Where two headings read alike, the source gives them in different places.
How the values were obtained:
[1] = system: IRF pathway, THP1-Dual™ cells; experiment: STING reporter assay in THP1-Dual cells, IRF pathway (Lucia luciferase, QUANTI-Luc); format: cell-based, human; settings: read-out: IRF (EC50 μM)
Procedure, shortened: (§1)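 Activation normalised between DMSO-only baseline and 100 μM cGAMP maximum, after 20 h compound exposure (starting at 100 μM final) at 37° C, 5% CO2. Supernatant SEAP (QUANTI-Blue, OD620) reports NF-κB; secreted luciferase (QUANTI-Luc, RLU at 5 min) reports IRF.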

[2] = system: NF-κB pathway, THP1-Dual™ cells; experiment: STING reporter assay in THP1-Dual cells, NF-κB pathway (SEAP, QUANTI-Blue); format: cell-based, human; settings: read-out: NFkB (EC50 μM)
Procedure, shortened: as §1

[3] = THP1-Dual cells, 10% human plasma, 20 hours, Lucia luciferase, 100% activation = 100 μM cGAMP
[4] = THP1-Dual cells, 10% human plasma, 20 hours, SEAP, 100% activation = 100 μM cGAMP
[5] = Homo sapiens, THP1-Dual, 20 h, THP1-Dual cells, 10% human plasma, 20 hours, Lucia luciferase, 100% activation = 100 μM cGAMP
[6] = Homo sapiens, THP1-Dual, 20 h, THP1-Dual cells, 10% human plasma, 20 hours, SEAP, 100% activation = 100 μM cGAMP

Structure (SMILES)	EC50 [1, 5]	EC50 [2, 6]	also measured
CC(OC(=O)c1cc(F)cc2cc(CNC(=O)c3cnc4cccnn34)oc12)C(F)(F)F (single isomer, unassigned) [EXAMPLE 315, 1,1,1-Trifluoropropan-2-yl 5-fluoro-2-((imidazo[1,2-b]pyridazine-3-carboxamido)methyl)benzofuran-7-carboxylate]			EC50 [1, 3]: 2.1 µM; EC50 [2, 4]: 1.9 µM
CC(C)OC(=O)c1cc(Cl)cc2cc(CNC(=O)c3cnn4cccnc34)oc12 [EXAMPLE 240, Isopropyl 5-chloro-2-((pyrazolo[1,5-a]pyrimidine-3-carboxamido)methyl)benzofuran-7-carboxylate]	0.78 µM	0.61 µM	
COc1cc(C(=O)OC(OC)C(F)(F)F)c2oc(CNC(=O)c3cnn4cccnc34)cc2c1 (racemic) [EXAMPLE 281, 2,2,2-Trifluoro-1-methoxyethyl 5-methoxy-2-((pyrazolo[1,5-a]pyrimidine-3-carboxamido)methyl)benzofuran-7-carboxylate]	11 µM	14 µM	
COC(=O)c1cc(Cl)cc2cc(CNC(=O)c3cncc4[nH]c(C)nc34)oc12 [Example 71, Methyl 5-chloro-2-((2-methyl-3H-imidazo[4,5-c]pyridine-7-carboxamido)methyl)benzofuran-7-carboxylate]	24 µM	33 µM	
COC(=O)c1cc(Cl)cc2cc(CNC(=O)c3cnn4cc(C)cnc34)oc12 [Example 55, Methyl 5-chloro-2-((6-methylpyrazolo[1,5-a]pyrimidine-3-carboxamido)methyl) benzofuran-7-carboxylate]			EC50 [1, 3]: 1.1 µM; EC50 [2, 4]: 1.1 µM
O=C(OC(CF)CF)c1cc(F)cc2c(Cl)c(CNC(=O)c3cnn4cccnc34)oc12 [EXAMPLE 290, 1,3-Difluoropropan-2-yl 3-chloro-5-fluoro-2-((pyrazolo[1,5-a]pyrimidine-3-carboxamido)methyl)benzofuran-7-carboxylate]	0.25 µM	0.35 µM	
CC(C)OC(=O)c1cc(Cl)cc2cc(Cn3cnc4ccncc4c3=O)oc12 [EXAMPLE 262, Isopropyl 5-chloro-2-((4-oxopyrido[4,3-d]pyrimidin-3(4H)-yl)methyl)benzofuran-7-carboxylate]	14 µM	18 µM	
O=C(OCC(F)(F)C(F)F)c1cccc2cc(CN3CCc4ccncc4C3=O)oc12 [EXAMPLE 213, 2,2,3,3-Tetrafluoropropyl 2-((1-oxo-3,4-dihydro-2,7-naphthyridin-2(1H)-yl)methyl)benzofuran-7-carboxylate]	79 µM	86 µM	
COC(OC(=O)c1cc(C)cc2cc(CNC(=O)c3cnn4cccnc34)oc12)C(F)(F)F (single isomer, unassigned) [EXAMPLE 344, 2,2,2-Trifluoro-1-methoxyethyl 5-methyl-2-((pyrazolo[1,5-a]pyrimidine-3-carboxamido)methyl)benzofuran-7-carboxylate]			EC50 [1, 3]: 0.63 µM; EC50 [2, 4]: 0.76 µM
COC(=O)c1cc(Cl)cc2cc(CNC(=O)c3cnccn3)oc12 [Example 58, Methyl 5-chloro-2-((pyrazine-2-carboxamido)methyl) benzofuran-7-carboxylate]			EC50 [1, 3]: 2.7 µM; EC50 [2, 4]: 2.9 µM
COC(=O)c1cccc2cc(CNC(=O)c3cnn4cc(Cl)cnc34)oc12 [EXAMPLE 13, Methyl 2-((6-chloropyrazolo[1,5-a]pyrimidine-3-carboxamido)methyl) benzofuran-7-carboxylate]			EC50 [1, 3]: 8.7 µM; EC50 [2, 4]: 11 µM
COC(=O)c1cc(C)cc2cc(CNC(=O)c3cnn4cc(C)cnc34)oc12 [Example 90, Methyl 5-methyl-2-((6-methylpyrazolo[1,5-a]pyrimidine-3-carboxamido)methyl)benzofuran-7-carboxylate]	2.2 µM	3 µM	
C[C@H](NC(=O)c1cnn2cccnc12)c1cc2cc(Cl)cc(C(=O)SCC[Si](C)(C)C)c2o1 [EXAMPLE 400, S-(2-(Trimethylsilyl)ethyl) (S)-5-chloro-2-(1-(pyrazolo[1,5-a]pyrimidine-3-carboxamido)ethyl)benzofuran-7-carbothioate]			EC50 ([1]; Homo sapiens, THP1-Dual, 20 h): 25 µM; EC50 ([2]; Homo sapiens, THP1-Dual, 20 h): 22 µM
Cc1cc(C(=O)OC2CC(F)(F)C2)c2oc(CNC(=O)c3cnn4cccnc34)c(Cl)c2c1 [EXAMPLE 303, 3,3-Difluorocyclobutyl 3-chloro-5-methyl-2-((pyrazolo[1,5-a]pyrimidine-3-carboxamido)methyl)benzofuran-7-carboxylate]	0.53 µM	0.58 µM	
COC(=O)c1cccc2c(Cl)c(CNC(=O)c3cnn4cccnc34)oc12 [EXAMPLE 22, Methyl 3-chloro-2-((pyrazolo[1,5-a]pyrimidine-3-carboxamido)methyl)benzofuran-7-carboxylate]	0.6 µM	0.67 µM	
COC(=O)c1cc(C(F)(F)F)cc2cc(CNC(=O)c3cnn4cccnc34)oc12 [EXAMPLE 106, Methyl 2-((pyrazolo[1,5-a]pyrimidine-3-carboxamido)methyl)-5-(trifluoromethyl) benzofuran-7-carboxylate]	0.75 µM	1.1 µM	
O=C(OC(C(F)(F)F)C(F)(F)F)c1cc(F)cc2cc(CNC(=O)c3cnn4cccnc34)oc12 [EXAMPLE 238, 1,1,1,3,3,3-Hexafluoropropan-2-yl 5-fluoro-2-((pyrazolo[1,5-a]pyrimidine-3-carboxamido)methyl)benzofuran-7-carboxylate]	1.6 µM	1.7 µM	
O=C(NCc1cc2cccc(C(=O)OCC(F)(F)F)c2o1)c1cnccn1 [EXAMPLE 216, 2,2,2-Trifluoroethyl 2-((pyrazine-2-carboxamido)methyl)benzofuran-7-carboxylate]	12 µM	17 µM	
Cc1ccnc2c(C(=O)NCc3cc4cccc(C(=O)OCC(F)(F)F)c4o3)cnn12 [EXAMPLE 221, 2,2,2-Trifluoroethyl 2-((7-methylpyrazolo[1,5-a]pyrimidine-3-carboxamido)methyl)benzofuran-7-carboxylate]	42 µM	83 µM	
O=C(OC1CC1)c1cccc2cc(CN3CCc4ccncc4C3=O)oc12 [EXAMPLE 207, Cyclopropyl 2-((1-oxo-3,4-dihydro-2,7-naphthyridin-2(1H)-yl)methyl)benzofuran-7-carboxylate]	9.2 µM	17 µM	
Cc1cc(C(=O)O)c2oc(CNC(=O)c3cnn4cc(C)cnc34)c(Cl)c2c1 [EXAMPLE 177, 3-Chloro-5-methyl-2-((6-methylpyrazolo[1,5-a]pyrimidine-3-carboxamido)methyl)benzofuran-7-carboxylic acid]	87 µM	> 100 µM	
COC(=O)c1cc(C)cc2cc(CNC(=O)c3cncnc3OC)oc12 [Example 94, Methyl 2-((4-methoxypyrimidine-5-carboxamido)methyl)-5-methylbenzofuran-7-carboxylate]	1.8 µM	2.1 µM	
COC(=O)c1cc(Cl)cc2cc(CNC(=O)c3cncc4ncn(C)c34)oc12 [Example 70, Methyl 5-chloro-2-((1-methyl-1H-imidazo[4,5-c]pyridine-7-carboxamido)methyl)benzofuran-7-carboxylate]	24 µM	> 100 µM	
COC(=O)c1cc(Cl)cc2cc(CNC(=O)c3cncc(OC)n3)oc12 [Example 60, Methyl 5-chloro-2-((6-methoxypyrazine-2-carboxamido)methyl) benzofuran-7-carboxylate]			EC50 [1, 3]: 7.7 µM; EC50 [2, 4]: 8.9 µM
COC(=O)c1cc(F)cc2cc(CNC(=O)c3cnn4ccc(OC)nc34)oc12 [EXAMPLE 40, Methyl 5-fluoro-2-((5-methoxypyrazolo[1,5-a]pyrimidine-3-carboxamido)methyl)benzofuran-7-carboxylate]	2.1 µM	3.2 µM	
COC(OC(=O)c1cc(C(F)(F)F)cc2cc(CNC(=O)c3cnn4cccnc34)oc12)C(F)(F)F (single isomer, unassigned) [EXAMPLE 351, 2,2,2-Trifluoro-1-methoxyethyl 2-((pyrazolo[1,5-a]pyrimidine-3-carboxamido)methyl)-5-(trifluoromethyl)benzofuran-7-carboxylate]	1.9 µM	2.4 µM	
COC(=O)Cc1cc(F)cc2cc(CNC(=O)c3cnn4cccnc34)oc12 [Example 47, Methyl 2-(5-fluoro-2-((pyrazolo[1,5-a]pyrimidine-3-carboxamido)methyl)benzofuran-7-yl)acetate]	6.7 µM	8.5 µM	
O=C(OCC(F)(F)F)c1cc(Br)cc2cc(CNC(=O)c3cnn4cccnc34)oc12 [EXAMPLE 269, 2,2,2-Trifluoroethyl 5-bromo-2-((pyrazolo[1,5-a]pyrimidine-3-carboxamido)methyl)benzofuran-7-carboxylate]	1.1 µM	1.1 µM	
CCn1cncc(C(=O)NCc2cc3cc(Cl)cc(C(=O)OC)c3o2)c1=O [Example 66, Methyl 5-chloro-2-((1-ethyl-6-oxo-1,6-dihydropyrimidine-5-carboxamido)methyl)benzofuran-7-carboxylate]	28 µM	33 µM	
COC(=O)c1cc(Br)cc2cc(CN3Cc4ncncc4C3=O)oc12 [Example 83, Methyl 5-bromo-2-((5-oxo-5,7-dihydro-6H-pyrrolo[3,4-d]pyrimidin-6-yl)methyl)benzofuran-7-carboxylate]	37 µM	48 µM	

From US12673954B2 (BRISTOL-MYERS SQUIBB COMPANY, priority 2021, dated 2026)
